The values that follow come from patent publication US12071411B2, “Inhibitors of HIF-2α and methods of use thereof” (ARCUS BIOSCIENCES, INC., priority 2021, dated 2024).

Assay [1] has as its target T1, HIF-2α (Homo sapiens, UniProt Q99814). The assay is described as follows: HIF-2α Luciferase Reporter Assay (serum), HRE-luciferase 786-0 cells in 100% human serum. The assay is classed as cell-based. Conditions: for IC50: 100% human serum, 786-0 reporter cells, overnight incubation, read-out: Serum Potency; for Serum Shift (approximate): ratio of IC50 in 100% serum to IC50 in serum free conditions. As to the method:
(§1) Generation of HIF-2α Luciferase 786-0 Cell Line:
(§2) Stable cell lines were generated by transducing 786-0 cells (ATCC, CRL-1932) with Cignal Lenti HIF Luc Reporter lentivirus (CLS-007L, Qiagen) according to the manufacturer's guidelines. In brief, 0.3×10^6 786-0 cells were transduced with lentivirus at a multiplicity of infection (MOI) of 25 for 24 hours. After transduction, cells were replenished with fresh RPMI 1640 Medium (Cat. No. 11875085, Thermo Fisher) supplemented with 10% FBS (Cat. No. A3160502, Gibco), 2 mM GlutaMAX™ (Cat. No. 35050-061, Invitrogen) and 100 units of penicillin and 100 μg of streptomycin/mL (Cat. No 15070063, Thermo Fisher) for another 24 hours. Antibiotic selection was performed in cell media containing 4 μg/mL of puromycin. After 7 days of antibiotic selection, stable pools of surviving cells were expanded and used in a luciferase reporter assay.
HIF-2α Luciferase Reporter Assay (Serum):
An HRE-luciferase stable reporter 786-0 cell line was maintained in active culture using RPMI 1640 (GIBCO) media supplemented with 1% penicillin-streptomycin, 1% GlutaMAX™, 10% FBS-One Shot (GIBCO) and 4 ug/ml of puromycin (Invitrogen). On the day of the assay, cells were harvested using StemPro™ Accutase™ cell dissociation reagent (GIBCO) and resuspended at 1.5 million cells per milliliter in Opti-MEM™ (GIBCO). 20 ul/well of the resuspended cells were dispensed into a 384 white tissue culture-treated microplate (Corning) and allowed to incubate at 37° C., 5% CO2 for 3 hours. Compounds were prepared by dispensing 0.8 ul of compound in 100% DMSO into a Greiner plate containing 40 ul/well of 100% human serum (Bioreclamation IVT). After 3 hours, media was removed via centrifugation at 500 RPM for 30 seconds and 30 ul/well of compound diluted in human serum was added. The plate was incubated overnight at 37° C., 5% CO2. The following day, ONE-Glo™ was prepared per vendors instructions. The cell plate was removed from the incubator and the human serum was removed from the plate using centrifugation at 500 RPM for 30 seconds. Following the removal of human serum, 40 ul/well of room temperature Opti-MEM™ was added to the plate and allowed to equilibrate to room temperature for 2 hours. 40 ul/well of ONE-Glo™ reagent was added and allowed to incubate for 10 minutes before reading the luminescence signal on the Envision (PerkinElmer). Data was analyzed using 4-parameter logistic equation to generate IC50.
(Reporter assays use an easily measured gene product as a stand-in for the process of interest.)

Assay [2] addresses T1, HIF-2α. The assay can be described thus: HIF-2α Luciferase Reporter Assay (serum free) in HIF-Luc-786-0 cells. It is filed as cell-based. Conditions: Opti-MEM, 786-0 reporter cells, 20 hours incubation. As to the method:
as §1, §2
HIF-2α Luciferase Reporter Assay (Serum Free):
On day one, 20 uL of HIF-Luc-786-0 cells in Opti-MEM™ (Cat. No. 31985088, Thermo Fisher) were seeded into each well of a 384 well white opaque plate (Corning 3570) and incubated at 37° C. and 5% CO2. Twenty microliters of 2× test compounds in Opti-MEM™ were added to cells after 4 hours of incubation. Final assay conditions comprised 20,000 cells per well in 1% DMSO with test compound concentrations ranging from 50 uM to 0 uM. After 20 hours incubation at 37° C. and 5% CO2, luciferase activity was determined using ONE-Glo™ Luciferase Assay Reagent (E6110, Promega) following the manufacture's recommended procedure. Briefly, 40 uL of ONE-Glo™ luciferase reagents were added to each well and luciferase signals were measured using an Envision 2102 Multilabel Reader. Percentage maximum activity in each test well was calculated based on DMSO (maximum activity) and no cell control wells (baseline activity). The IC50 values of the test compounds were determined from compound dose response curves fitted using a standard four parameter fit equation.

Some results are limits rather than exact numbers.

T1 sequence (Q99814 whole entry): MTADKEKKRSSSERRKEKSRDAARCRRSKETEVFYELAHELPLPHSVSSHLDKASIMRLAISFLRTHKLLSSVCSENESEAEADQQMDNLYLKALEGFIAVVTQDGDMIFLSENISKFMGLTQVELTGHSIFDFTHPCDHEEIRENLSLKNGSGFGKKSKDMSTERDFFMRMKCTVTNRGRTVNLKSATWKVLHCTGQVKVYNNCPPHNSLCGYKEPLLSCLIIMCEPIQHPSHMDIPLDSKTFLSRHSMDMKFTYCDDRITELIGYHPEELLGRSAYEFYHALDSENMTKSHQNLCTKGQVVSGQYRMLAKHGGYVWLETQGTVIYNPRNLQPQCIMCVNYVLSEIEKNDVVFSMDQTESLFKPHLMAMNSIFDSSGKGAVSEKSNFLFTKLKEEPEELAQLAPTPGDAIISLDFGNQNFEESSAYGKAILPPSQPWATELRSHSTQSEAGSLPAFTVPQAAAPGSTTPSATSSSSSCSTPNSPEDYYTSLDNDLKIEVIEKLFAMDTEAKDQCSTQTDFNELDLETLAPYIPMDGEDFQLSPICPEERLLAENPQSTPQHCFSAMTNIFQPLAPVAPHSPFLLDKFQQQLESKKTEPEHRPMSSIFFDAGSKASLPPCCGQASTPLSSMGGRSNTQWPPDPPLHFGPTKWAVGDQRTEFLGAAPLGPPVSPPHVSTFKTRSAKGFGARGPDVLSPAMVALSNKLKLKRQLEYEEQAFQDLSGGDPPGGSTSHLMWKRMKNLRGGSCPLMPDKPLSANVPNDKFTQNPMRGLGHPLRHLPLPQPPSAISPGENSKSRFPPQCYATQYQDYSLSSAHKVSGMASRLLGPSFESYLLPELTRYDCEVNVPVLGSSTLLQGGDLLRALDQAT

With `O[C@H]1c2c(C(F)(F)F)nn([C@@H]3C[C@@H](F)[C@@H](F)[C@@H](F)C3)c2[C@@H](F)C1(F)F` (single isomer, unassigned) [146/147 DIAST-2], at HIF-2α [1], the IC50 lay within 100 to 1000 nM and the “Serum Shift (approximate)” value is recorded as 8. Moreover, on HIF-2α [2], the IC50 is less than 100 nM.
In the case of `O=S(=O)(CCn1nc(C(F)(F)F)c2c1CCC(F)(F)[C@H]2O)C(F)(F)F` [Example 8, (4S)-5,5-difluoro-3-(trifluoromethyl)-1-[2-(trifluoromethylsulfonyl)ethyl]-6,7-dihydro-4H-indazol-4-ol], the IC50 at HIF-2α [1] is 100 to 1000 nM; against HIF-2α [2], less than 100 nM. The “Serum Shift (approximate)” value at HIF-2α [1] was found to be 4.
The corresponding values for `C[C@H](C#N)CCn1nc(C(F)(F)F)c2c1CCC(F)(F)[C@H]2O` [Example 100, (2S)-4-[(4S)-5,5-difluoro-4-hydroxy-3-(trifluoromethyl)-6,7-dihydro-4H-indazol-1-yl]-2-methylbutanenitrile] are greater than 1000 nM, 100 to 1000 nM and 4.
Consider `O[C@H]1c2c(C(F)(F)F)nn(C3CCC(F)(F)CC3)c2[C@@H](F)[C@H]1F` [Example 132, (4S,5S,6R)-1-(4,4-difluorocyclohexyl)-5,6-difluoro-3-(trifluoromethyl)-5,6-dihydro-4H-cyclopenta[c]pyrazol-4-ol], for which, on HIF-2α [1], the IC50 was greater than 1000 nM and the “Serum Shift (approximate)” value came to 8. For the same compound, on HIF-2α [2], the IC50 is less than 100 nM.
The corresponding values for `O=S1(=O)CC(Cn2nc(C(F)(F)F)c3c2[C@@H](F)C(F)(F)[C@H]3O)C1` (single isomer, unassigned) [144/145 DIAST-2] are 100 to 1000 nM, 3 and 100 to 1000 nM.
On the same counts, the results for `O[C@H]1c2c(C(F)(F)F)nn(CCc3ccco3)c2CC1(F)F` [Example 77, (4S)-5,5-difluoro-1-[2-(furan-2-yl)ethyl]-3-(trifluoromethyl)-1H,4H,5H,6H-cyclopenta[c]pyrazol-4-ol] are greater than 1000 nM, 10 and less than 100 nM.
On the same counts, the results for `O[C@H]1c2c(C(F)(F)F)nn([C@@H]3CC[C@@H](F)[C@@H](F)C3)c2[C@@H](F)[C@H]1F` (single isomer, unassigned) [141/142 DIAST-1] are 100 to 1000 nM, 4 and 100 to 1000 nM.
With `O[C@H]1c2c(C(F)(F)F)nn(CCSC(F)F)c2CCC1(F)F` [Example 18, (4S)-1-[2-(difluoromethylsulfanyl)ethyl]-5,5-difluoro-3-(trifluoromethyl)-6,7-dihydro-4H-indazol-4-ol], at HIF-2α [1], the IC50 lay within 100 to 1000 nM and the “Serum Shift (approximate)” value came out at 4. Moreover, the IC50 on HIF-2α [2] lay within 100 to 1000 nM.
Regarding `O[C@H]1c2c(C(F)(F)F)nn(CCc3cccc(F)c3)c2CC1(F)F` [Example 79, (4S)-5,5-difluoro-1-[2-(3-fluorophenyl)ethyl]-3-(trifluoromethyl)-1H,4H,5H,6H-cyclopenta[c]pyrazol-4-ol], the IC50 on HIF-2α [1] was greater than 1000 nM; against HIF-2α [2], less than 100 nM. Besides, the “Serum Shift (approximate)” value at HIF-2α [1] came to 13.
On the same counts, the results for `O[C@H]1c2c(C(F)(F)F)nn([C@@H]3CC[C@@H](F)C[C@H]3F)c2CC1(F)F` (single isomer, unassigned) [97/98 DIAST-1] are greater than 1000 nM, 100 to 1000 nM and 23.
The corresponding values for `O[C@H]1c2c(C(F)(F)F)nn(C3CCC[C@H](OC(F)F)C3)c2CC1(F)F` (mixture of isomers) [Example 108, (4S)-1-[(1S,3S)-3-(difluoromethoxy)cyclohexyl]-5,5-difluoro-3-(trifluoromethyl)-1H,4H,5H,6H-cyclopenta[c]pyrazol-4-ol and (4S)-1-[(1R,3R)-3-(difluoromethoxy)cyclohexyl]-5,5-difluoro-3-(trifluoromethyl)-1H,4H,5H,6H-cyclopenta[c]pyrazol-4-ol] are greater than 1000 nM, less than 100 nM and 19.
On the same counts, the results for `O[C@H]1c2c(C(F)(F)F)nn(CC3CC3C(F)(F)F)c2CCC1(F)F` (stereo partly drawn) [Example 59, (4S)-5,5-difluoro-3-(trifluoromethyl)-1-[[2-(trifluoromethyl)cyclopropyl]methyl]-6,7-dihydro-4H-indazol-4-ol] are greater than 1000 nM, 100 to 1000 nM and 7.
On to `CCC(CCn1nc(C(F)(F)F)c2c1CCC(F)(F)[C@H]2O)C(F)(F)F` (stereo partly drawn) [Example 43, (4S)-5,5-difluoro-3-(trifluoromethyl)-1-[3-(trifluoromethyl)pentyl]-6,7-dihydro-4H-indazol-4-ol], for which, at HIF-2α [1], the IC50 is greater than 1000 nM and the “Serum Shift (approximate)” value stood at 17. Further, at HIF-2α [2], the IC50 lay in the range of 100 to 1000 nM.
For `O[C@H]1c2c(C(F)(F)F)nn(-c3ccc(Cl)c(F)c3)c2CC1(F)F` [Example 119, (4S)-1-(4-chloro-3-fluorophenyl)-5,5-difluoro-3-(trifluoromethyl)-4,6-dihydrocyclopenta[c]pyrazol-4-ol], at HIF-2α [1], the IC50 is greater than 1000 nM and the “Serum Shift (approximate)” value is 73. In addition, the IC50 on HIF-2α [2] is less than 100 nM.
The corresponding values for `O[C@H]1c2c(C(F)(F)F)nn([C@H]3CCO[C@@H](C(F)(F)F)C3)c2CC1(F)F` (single isomer, unassigned) [94/95 DIAST-1] are greater than 1000 nM, 17 and less than 100 nM.
The corresponding values for `CO[C@H]1C[C@H](n2nc(C(F)(F)F)c3c2CC(F)(F)[C@H]3O)CCC1(F)F` (racemic) [Example 111, (4S)-1-[(1R,3S)-4,4-difluoro-3-methoxycyclohexyl]-5,5-difluoro-3-(trifluoromethyl)-1H,4H,5H,6H-cyclopenta[c]pyrazol-4-ol and (4S)-1-[(1S,3R)-4,4-difluoro-3-methoxycyclohexyl]-5,5-difluoro-3-(trifluoromethyl)-1H,4H,5H,6H-cyclopenta[c]pyrazol-4-ol] are greater than 1000 nM, 9 and less than 100 nM.
Take `O[C@H]1c2c(C(F)(F)F)nn([C@@H]3C[C@@H](F)[C@@H](F)[C@@H](F)C3)c2[C@H](F)C1(F)F` (single isomer, unassigned) [146/147 DIAST-1]: on HIF-2α [1], the IC50 is less than 100 nM and the “Serum Shift (approximate)” value is on record as 5. In addition, the IC50 against HIF-2α [2] was less than 100 nM.
Regarding `O[C@H]1c2c(C(F)(F)F)nn([C@@H]3COCC(F)(F)C3)c2CC1(F)F` [Example 87, (4S)-1-[(3S)-5,5-difluorooxan-3-yl]-5,5-difluoro-3-(trifluoromethyl)-1H,4H,5H,6H-cyclopenta[c]pyrazol-4-ol], the IC50 is greater than 1000 nM on HIF-2α [1] and 100 to 1000 nM at HIF-2α [2]. In addition, the “Serum Shift (approximate)” value on HIF-2α [1] was 7.
The corresponding values for `CCO[C@H](CCn1nc(C(F)(F)F)c2c1CC(F)(F)[C@H]2O)C(F)(F)F` [Example 101, (4S)-1-[(3R)-3-ethoxy-4,4,4-trifluorobutyl]-5,5-difluoro-3-(trifluoromethyl)-4,6-dihydrocyclopenta[c]pyrazol-4-ol] are greater than 1000 nM, less than 100 nM and 11.
On the same counts, the results for `O[C@H]1c2c(C(F)(F)F)nn(C3CCC(F)(F)CC3)c2CC1(F)F` [Example 53, (4S)-1-(4,4-difluorocyclohexyl)-5,5-difluoro-3-(trifluoromethyl)-4,6-dihydrocyclopenta[c]pyrazol-4-ol] are 100 to 1000 nM, less than 100 nM and 7.
